This note sets out measurements from patent US20260034170A1, “NITRIC OXIDE TOPICAL APPLICATION APPARATUS AND METHODS” (NOxy Health Products, Inc., priority 2016, published 2026).

The structures appear in SMILES notation.

The subject of the assay is bacteria on a surface, such as a person's skin. Kind of assay: dose of nitric oxide required to kill bacteria on a surface.

In the case of `[N]=O` [nitric oxide], the “dose required to kill bacteria on a surface” value was at least 320 ppm.
